How the values were obtained:
Experiment in all cases: Cell panel screen (CellTiter-Glo)
Assay type in all cases: cell-based, human
[1] = tested on: M059J; conditions: M059J (Brain), 20 micromolar, 72 hrs
Experimental: (§1) All cells were obtained from the cell bank of the American Type Culture Collection (ATCC) and cultured in the supplier's recommended media supplemented with 10% FBS. The cell panel screen was measured using the CellTiter-Glo assay (Promega, Madison, WI) following a standard protocol. Briefly, cancer cells were seeded in 96-well plates and cultured overnight at 37°C with or without 5% CO2 in an incubator. Each compound was dissolved with limited DMSO and diluted to a certain concentration with culture medium and then added to the corresponding well of the cell plate. The final concentration of compound was 20 μM. The control cells (without treatment) received the same amount of DMSO and were incubated under the same conditions. After 72 h cultivation, 100 μL of the CellTiter-Glo reagent was added directly to each well for 10-minute incubation. The plate was then read on a FlexStation 3 microplate luminometer (Molecular Devices, USA) to monitor the luminescence signal generated by the luciferase-catalyzed reaction of luciferin and ATP. The percent of growth inhibition was calculated using the following formula: (untreated cells − treated cells)/(untreated cells − background without cells) ∗ 100.

[2] = tested on: TCCSUP; conditions: TCCSUP (Urinary bladder), 20 micromolar, 72 hrs
Experimental: as §1

[3] = tested on: HPAF-II; conditions: HPAF-II (Pancreas), 20 micromolar, 72 hrs
Experimental: as §1

[4] = tested on: NCI-H1694; conditions: NCI-H1694 (Lung), 20 micromolar, 72 hrs
Experimental: as §1

[5] = tested on: T47D; conditions: T47D (Breast), 20 micromolar, 72 hrs
Experimental: as §1

[6] = tested on: NCI-H524; conditions: NCI-H524 (Lung), 20 micromolar, 72 hrs
Experimental: as §1

[7] = tested on: NCI-H28; conditions: NCI-H28 (Lung), 20 micromolar, 72 hrs
Experimental: as §1

[8] = tested on: C3A; conditions: C3A (Liver), 20 micromolar, 72 hrs
Experimental: as §1

[9] = tested on: Bel-7402; conditions: Bel-7402 (Liver), 20 micromolar, 72 hrs
Experimental: as §1

[10] = tested on: CW-2; conditions: CW-2 (Colon), 20 micromolar, 72 hrs
Experimental: as §1

[11] = tested on: HGC-27; conditions: HGC-27 (Stomach), 20 micromolar, 72 hrs
Experimental: as §1

[12] = tested on: SW13; conditions: SW13 (Adrenal gland), 20 micromolar, 72 hrs
Experimental: as §1

[13] = tested on: MSTO-211-H; conditions: MSTO-211-H (Lung), 20 micromolar, 72 hrs
Experimental: as §1

[14] = tested on: C8166; conditions: C8166 (Leukemia), 20 micromolar, 72 hrs
Experimental: as §1

[15] = tested on: HCC1937; conditions: HCC1937 (Breast), 20 micromolar, 72 hrs
Experimental: as §1

[16] = tested on: BT-474; conditions: BT-474 (Breast), 20 micromolar, 72 hrs
Experimental: as §1

[17] = tested on: CCF-STTG1; conditions: CCF-STTG1 (Brain), 20 micromolar, 72 hrs
Experimental: as §1

[18] = tested on: HEC-1-A; conditions: HEC-1-A (Uterus), 20 micromolar, 72 hrs
Experimental: as §1

[19] = tested on: T98G; conditions: T98G (Brain), 20 micromolar, 72 hrs
Experimental: as §1

[20] = tested on: NCI-H1770; conditions: NCI-H1770 (Lung), 20 micromolar, 72 hrs
Experimental: as §1

[21] = tested on: Colo 205; conditions: Colo 205, 20 micromolar, 72 hrs
Experimental: as §1

[22] = tested on: A498; conditions: A498 (listed under Lung), 20 micromolar, 72 hrs
Experimental: as §1

[23] = tested on: RL95; conditions: RL95 (Uterus), 20 micromolar, 72 hrs
Experimental: as §1

[24] = tested on: A704; conditions: A704 (Kidney), 20 micromolar, 72 hrs
Experimental: as §1

[25] = tested on: ChaGo-K-1; conditions: ChaGo-K-1 (Lung), 20 micromolar, 72 hrs
Experimental: as §1

[26] = tested on: HCC1569; conditions: HCC1569 (Breast), 20 micromolar, 72 hrs
Experimental: as §1

[27] = tested on: HT-1197; conditions: HT-1197 (Urinary bladder), 20 micromolar, 72 hrs
Experimental: as §1

[28] = tested on: NCI-H1623; conditions: NCI-H1623 (Lung), 20 micromolar, 72 hrs
Experimental: as §1

[29] = tested on: HCC1599; conditions: HCC1599 (Breast), 20 micromolar, 72 hrs
Experimental: as §1

[30] = tested on: J82; conditions: J82 (Urinary bladder), 20 micromolar, 72 hrs
Experimental: as §1

[31] = tested on: Panc 03.27; conditions: Panc 03.27 (Pancreas), 20 micromolar, 72 hrs
Experimental: as §1

[32] = tested on: NCI-H2347; conditions: NCI-H2347 (Lung), 20 micromolar, 72 hrs
Experimental: as §1

[33] = tested on: BT-549; conditions: BT-549 (Breast), 20 micromolar, 72 hrs
Experimental: as §1

[34] = tested on: HCC1395; conditions: HCC1395 (Breast), 20 micromolar, 72 hrs
Experimental: as §1

[35] = tested on: NCI-H2405; conditions: NCI-H2405 (Lung), 20 micromolar, 72 hrs
Experimental: as §1

[36] = tested on: ZR-75-30; conditions: ZR-75-30 (Breast), 20 micromolar, 72 hrs
Experimental: as §1

Row | SMILES | Percent Inhibition [1] [%] | Percent Inhibition [2] [%] | Percent Inhibition [3] [%] | Percent Inhibition [4] [%] | Percent Inhibition [5] [%] | Percent Inhibition [6] [%] | Percent Inhibition [7] [%] | Percent Inhibition [8] [%] | Percent Inhibition [9] [%] | Percent Inhibition [10] [%] | Percent Inhibition [11] [%] | Percent Inhibition [12] [%] | Percent Inhibition [13] [%] | Percent Inhibition [14] [%] | Percent Inhibition [15] [%] | Percent Inhibition [16] [%] | Percent Inhibition [17] [%] | Percent Inhibition [18] [%] | Percent Inhibition [19] [%] | Percent Inhibition [20] [%] | also measured
1 | COC(=O)C1OC(Oc2cc(O)c3c(c2)OC(c2ccc(O)c(O)c2)CC3=O)C(O)C(O)C1O (stereo not drawn) [gly-5] | 6 | -11 | -7 | -2 | 2 | -5 | -17 | -1 | -8 | 1 | -2 | -6 | -6 | -5 | 1 | -15 | 8 | -16 | 0 | -6 | Percent Inhibition [21]: -4%; Percent Inhibition [22]: -12%; Percent Inhibition [23]: 6%; Percent Inhibition [24]: -7%; Percent Inhibition [25]: -10%; Percent Inhibition [26]: -7%; Percent Inhibition [27]: 0%; Percent Inhibition [28]: 7%; Percent Inhibition [29]: -41%; Percent Inhibition [30]: -8%; Percent Inhibition [31]: 3%; Percent Inhibition [32]: 1%; Percent Inhibition [33]: -12%; Percent Inhibition [34]: 11%; Percent Inhibition [35]: 5%; Percent Inhibition [36]: 7%
2 | COc1cc(O)c2c(=O)c3cc4c(c(O)c3oc2c1CC=C(C)C)OC(C)(C)C=C4 [gl-12] | 27 | 11 | 21 | 28 | 21 | -2 | 2 | 7 | 5 | 28 | 34 | -2 | -5 | 25 | -7 | -2 | 16 | 13 | 28 | 34 | Percent Inhibition [21]: 10%; Percent Inhibition [22]: 11%; Percent Inhibition [23]: 23%; Percent Inhibition [24]: 3%; Percent Inhibition [25]: 38%; Percent Inhibition [26]: 19%; Percent Inhibition [27]: 20%; Percent Inhibition [28]: 5%; Percent Inhibition [29]: 52%; Percent Inhibition [30]: 17%; Percent Inhibition [31]: 24%; Percent Inhibition [32]: 9%; Percent Inhibition [33]: -2%; Percent Inhibition [34]: 22%; Percent Inhibition [35]: 11%; Percent Inhibition [36]: 54%
3 | CC(C)=CCCC1(C)C=Cc2c(O)c3c(c(CC=C(C)C)c2O1)OC12C(=CC4CC1C(C)(C)OC2(CC=C(C)C(=O)O)C4=O)C3=O (mixture of isomers) [GB14] | 97 | 98 | 97 | 98 | 98 | 98 | 97 | 98 | 97 | 98 | 98 | 97 | 97 | 97 | 98 | 98 | 98 | 97 | 98 | 97 | Percent Inhibition [21]: 98%; Percent Inhibition [22]: 97%; Percent Inhibition [23]: 97%; Percent Inhibition [24]: 97%; Percent Inhibition [25]: 98%; Percent Inhibition [26]: 98%; Percent Inhibition [27]: 98%; Percent Inhibition [28]: 98%; Percent Inhibition [29]: 98%; Percent Inhibition [30]: 97%; Percent Inhibition [31]: 97%; Percent Inhibition [32]: 97%; Percent Inhibition [33]: 98%; Percent Inhibition [34]: 98%; Percent Inhibition [35]: 97%; Percent Inhibition [36]: 99%
4 | CC(C)=CCc1c2c(c(O)c3c(=O)c4c(CC=C(C)C)c(O)c(O)cc4oc13)C=CC(C)(C)O2 [bn-4, Bannaxanthone D] | 90 | 92 | 73 | 97 | 80 | 98 | 85 | 63 | 94 | 97 | 86 | 94 | 94 | 96 | 89 | 83 | 86 | 76 | 97 | 75 | Percent Inhibition [21]: 93%; Percent Inhibition [22]: 84%; Percent Inhibition [23]: 96%; Percent Inhibition [24]: 94%; Percent Inhibition [25]: 93%; Percent Inhibition [26]: 92%; Percent Inhibition [27]: 89%; Percent Inhibition [28]: 80%; Percent Inhibition [29]: 97%; Percent Inhibition [30]: 94%; Percent Inhibition [31]: 88%; Percent Inhibition [32]: 53%; Percent Inhibition [33]: 96%; Percent Inhibition [34]: 96%; Percent Inhibition [35]: 92%; Percent Inhibition [36]: 81%
